Values quoted from earlier work as cited in patent US20110165699A1 (priority 2009, published 2011).

inter-patient variability, CV in AUCs (Sasaki, Jpn. J. Cancer 1995): 38.91% | intra- and inter-individual pharmacokinetic variability (has been reported): more than 40 fold
SMILES: CCc1c2c(nc3ccc(O)cc13)-c1cc3c(c(=O)n1C2)COC(=O)[C@]3(O)CC [SN-38, 7-ethyl-10-hydroxy-camptotheen]
